Read-outs that look alike come from different tables or passages of the source.
How the values were obtained:
Format in all cases: in vivo
[1] = test system: Polygonum convolvulus; assay: Herbicidal action (field trials), Polygonum convolvulus; details: Fallopia convolvulus, field trial
Protocol: (§1) The seeds or rhizome pieces of typical harmful plants were planted and grown under natural field conditions. Before the harmful plants had emerged or after the harmful plants had emerged, they were treated, as a rule at the 2- to 8-leaf stage, with various dosages of the compositions according to the invention at a water application rate of 100 to 400 I/ha (converted).
(§2) After the treatment (approx. 4-6 weeks after application), the herbidical activity of the active ingredients or active ingredient mixtures was scored visually by comparing the treated plots with the untreated control plots. Damage and development of all aerial parts of the plants was recorded. Scoring was done on a percentage scale (100% action=all plants dead; 50% action=50% of the plants and green plant parts dead; 0% action=no discernible action=like control plot). The score figures of in each case 4 plots was averaged.
(§3) The results are shown in the tables which follow, the action when using active ingredients (A+B) and (C) independently being stated in brackets.

[2] = test system: Maize
Protocol: as §1, §2, §3

[3] = test system: Setaria spp.; assay: Herbicidal action (field trials), Setaria spp.; details: field trial
Protocol: as §1, §2, §3

[4] = test system: Sorghum verticillata; assay: Herbicidal action (field trials), Sorghum verticillata; details: 60 g As/ha, field trial
Protocol: as §1, §2, §3

Structure (SMILES): N#Cc1cc(Br)c(O)c(Br)c1 [bromoxynil (C33), 3,5-dibromo-4-hydroxybenzonitrile]
- inhibition at 240 g/ha ([1]; 240 g As/ha): 40%
- Maize % damage ([2]; 240 g As/ha, field trial (table part with Polygonum convolvulus)): 2%

Structure (SMILES): COc1c(Cl)ccc(Cl)c1C(=O)O [dicamba (C20), 3,6-dichloro-o-anisic acid]
- inhibition at 60 g/ha ([1]; 60 g As/ha): 35%
- Maize % damage ([2]; 60 g As/ha, field trial (table part with Polygonum convolvulus)): 0%

Structure (SMILES): COc1nc(C)nc(NC(=O)NS(=O)(=O)c2ccccc2CCC(F)(F)F)n1 [prosulfuron (C42), 1-(4-methoxy-6-methyl-1,3,5-triazin-2-yl)-3-[2-(3,3,3-trifluoropropyl)phenylsulfonyl]urea]
- inhibition at 40 g/ha ([3]; 40 g As/ha): 15%
- Maize % damage ([2]; 40 g As/ha, field trial (table part with Setaria spp.)): 7%

Structure (SMILES): COc1cc(OC)nc(NC(=O)NS(=O)(=O)c2c(C(=O)O)c(Cl)nn2C)n1 [halosulfuron (C40), 3-chloro-5-(4,6-dimethoxypyrimidin-2-ylcarbamoylsulfamoyl)-1-methylpyrazole-4-carboxylic acid]
- inhibition at 36 g/ha ([3]; 36 g As/ha): 0%
- Maize % damage ([2]; 36 g As/ha, field trial (table part with Setaria spp.)): 3%

Structure (SMILES): COc1cc(OC)nc(NC(=O)NS(=O)(=O)c2ncccc2C(=O)N(C)C)n1 [nicosulfuron (C15), 2-(4,6-dimethoxypyrimidin-2-yl)-3-(3-dimethylcarbamoyl-2-pyridylsulfonyl)urea]
- inhibition at 60 g/ha [4]: 74%
- Maize % damage ([2]; 60 g As/ha, field trial (table part with Sorghum verticillata)): 0%

— patent US6750177B2, “Herbicide combination with acylated aminophenylsulfonylureas” (priority 2002, dated 2004)
